Laboratory results from PMC7827406, “Structure–Activity Relationship (SAR) Study of Spautin-1 to Entail the Discovery of Novel NEK4 Inhibitors” (International Journal of Molecular Sciences, 2021).
Like-named read-outs stand apart in the source and are kept apart here.

Assays:
Assay in all cases: biochemical
Design in all cases: Eurofins KinaseProfiler full panel at Km ATP, residual kinase activity (%) relative to DMSO
NDR1(h) = target: T1, NDR1(h) (Homo sapiens, UniProt Q15208)
T1 construct: gene STK38
How it was run: (§1)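 Radiometric kinase activity assays were run with ATP at Km and compounds at 10 µM, and remaining activity (%) was reported. A separate competitive binding screen measured DNA-tagged kinase displaced from immobilized active-site ligands by qPCR, giving percent kinase still bound at 10 µM compound in DMSO.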

Pim-3(h) = target: T2, Pim-3(h) (Homo sapiens, UniProt Q86V86)
T2 construct: gene PIM3
How it was run: as §1

Plk4(h) = target: T3, Plk4(h) (Homo sapiens, UniProt O00444)
T3 sequence (O00444 1-970): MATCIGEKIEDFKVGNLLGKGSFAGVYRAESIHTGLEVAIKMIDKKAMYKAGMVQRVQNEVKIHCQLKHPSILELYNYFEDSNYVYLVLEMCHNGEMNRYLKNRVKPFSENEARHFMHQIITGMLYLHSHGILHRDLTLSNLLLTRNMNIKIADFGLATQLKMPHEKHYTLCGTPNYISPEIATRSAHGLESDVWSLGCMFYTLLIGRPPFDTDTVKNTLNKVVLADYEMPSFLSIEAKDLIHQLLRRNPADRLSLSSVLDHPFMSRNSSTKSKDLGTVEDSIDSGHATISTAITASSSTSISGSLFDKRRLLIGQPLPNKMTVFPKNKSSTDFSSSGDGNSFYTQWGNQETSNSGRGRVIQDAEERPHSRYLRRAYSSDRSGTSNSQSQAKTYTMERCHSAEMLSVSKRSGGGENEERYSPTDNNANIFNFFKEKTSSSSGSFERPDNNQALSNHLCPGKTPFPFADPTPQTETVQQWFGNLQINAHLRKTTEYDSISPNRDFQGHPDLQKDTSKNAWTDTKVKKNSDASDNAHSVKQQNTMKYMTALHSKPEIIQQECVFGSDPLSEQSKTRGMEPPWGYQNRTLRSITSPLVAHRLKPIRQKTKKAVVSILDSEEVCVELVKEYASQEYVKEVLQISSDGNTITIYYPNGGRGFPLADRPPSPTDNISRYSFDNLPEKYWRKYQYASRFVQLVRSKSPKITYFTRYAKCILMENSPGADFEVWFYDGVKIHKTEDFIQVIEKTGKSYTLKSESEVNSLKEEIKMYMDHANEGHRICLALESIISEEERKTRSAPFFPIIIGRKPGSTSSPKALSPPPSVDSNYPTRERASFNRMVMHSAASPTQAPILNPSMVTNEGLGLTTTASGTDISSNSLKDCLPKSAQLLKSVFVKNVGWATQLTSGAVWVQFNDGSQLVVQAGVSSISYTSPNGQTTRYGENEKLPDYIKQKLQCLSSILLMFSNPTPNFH
How it was run: as §1

EphB1(h) = target: T4, EphB1(h) (Homo sapiens, UniProt P54762)
T4 sequence (P54762 1-984): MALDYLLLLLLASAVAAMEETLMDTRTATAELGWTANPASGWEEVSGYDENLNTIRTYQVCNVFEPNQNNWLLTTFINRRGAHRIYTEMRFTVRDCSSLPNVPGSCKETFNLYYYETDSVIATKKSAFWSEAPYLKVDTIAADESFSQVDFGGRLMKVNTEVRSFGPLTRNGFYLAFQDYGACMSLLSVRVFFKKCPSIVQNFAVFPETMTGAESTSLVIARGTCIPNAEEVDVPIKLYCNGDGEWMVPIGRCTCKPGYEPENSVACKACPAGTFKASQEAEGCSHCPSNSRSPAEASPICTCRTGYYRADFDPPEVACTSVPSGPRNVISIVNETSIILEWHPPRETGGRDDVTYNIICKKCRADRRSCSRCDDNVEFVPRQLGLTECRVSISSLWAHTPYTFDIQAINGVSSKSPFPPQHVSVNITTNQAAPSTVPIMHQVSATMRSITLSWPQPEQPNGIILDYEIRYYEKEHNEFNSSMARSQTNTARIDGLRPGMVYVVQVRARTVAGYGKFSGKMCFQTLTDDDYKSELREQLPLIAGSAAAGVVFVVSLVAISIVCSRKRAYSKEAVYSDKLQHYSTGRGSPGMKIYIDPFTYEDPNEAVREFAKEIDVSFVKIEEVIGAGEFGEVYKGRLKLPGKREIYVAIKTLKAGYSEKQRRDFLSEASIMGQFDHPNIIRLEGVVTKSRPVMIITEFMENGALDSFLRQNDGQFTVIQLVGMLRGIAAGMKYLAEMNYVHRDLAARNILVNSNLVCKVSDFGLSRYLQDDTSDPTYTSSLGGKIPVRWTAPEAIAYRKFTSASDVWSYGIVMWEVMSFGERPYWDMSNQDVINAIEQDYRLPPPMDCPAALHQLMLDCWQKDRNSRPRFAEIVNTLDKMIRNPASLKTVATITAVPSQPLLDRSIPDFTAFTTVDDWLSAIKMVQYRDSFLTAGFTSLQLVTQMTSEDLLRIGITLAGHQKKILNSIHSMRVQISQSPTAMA
How it was run: as §1

[1] = read-out: Residual activity (%) 5at
[2] = read-out: Residual activity (%) 5as
[3] = read-out: Residual activity (%) 5ay
[4] = read-out: Residual activity (%) Spautin-1 5aa

T1 sequence (Q15208 whole entry): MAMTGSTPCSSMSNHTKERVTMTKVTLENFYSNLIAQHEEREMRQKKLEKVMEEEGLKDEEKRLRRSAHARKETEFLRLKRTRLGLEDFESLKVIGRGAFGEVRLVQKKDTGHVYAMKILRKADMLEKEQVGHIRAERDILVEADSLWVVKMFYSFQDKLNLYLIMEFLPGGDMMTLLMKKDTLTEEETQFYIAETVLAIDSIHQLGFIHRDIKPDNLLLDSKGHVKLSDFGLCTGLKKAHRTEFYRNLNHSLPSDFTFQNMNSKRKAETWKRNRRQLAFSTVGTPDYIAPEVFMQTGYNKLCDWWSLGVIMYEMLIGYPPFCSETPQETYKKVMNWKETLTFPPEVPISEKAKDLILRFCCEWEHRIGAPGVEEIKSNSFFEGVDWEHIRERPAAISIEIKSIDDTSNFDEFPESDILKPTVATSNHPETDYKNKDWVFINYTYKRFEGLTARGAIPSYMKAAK

Question: What does the source list for `Fc1ccc2ncnc(NCCc3ccc(Cl)cc3)c2c1` [5at, N-[2-(4-Chlorophenyl)Ethyl]-6-Fluoro-4-Quinazolinamine]?
Answer: remaining activity at 10 µM (NDR1(h); [1]): 89%; remaining activity at 10 µM (Pim-3(h); [1]): 97%; remaining activity at 10 µM (Plk4(h); [1]): 78%; remaining activity at 10 µM (EphB1(h); [1]): 95%

Question: For `Fc1ccc(CCNc2ncnc3ccc(F)cc23)cc1` [5as, 6-Fluoro-N-[2-(4-Fluorophenyl)Ethyl]-4-Quinazolinamine], which remaining activity at 10 µM (NDR1(h); [2]) is on record?
Answer: Its remaining activity at 10 µM is 96%.

Question: What about the remaining activity at 10 µM (Pim-3(h); [2]) of the same molecule?
Answer: Its remaining activity at 10 µM is 92%.

Question: And the remaining activity at 10 µM (Plk4(h); [2])?
Answer: Its remaining activity at 10 µM is 80%.

Question: What about the remaining activity at 10 µM (EphB1(h); [2]) of the same molecule?
Answer: Its remaining activity at 10 µM is 90%.

Question: With `COc1ccc2ncnc(Nc3cccc(F)c3)c2c1` [5ay, N-(3-Fluorophenyl)-6-Methoxy-4-Quinazolinamine] as the molecule, how does the remaining activity at 10 µM (NDR1(h); [3]) read?
Answer: The remaining activity at 10 µM was 98%.

Question: What about the remaining activity at 10 µM (Pim-3(h); [3]) of the same molecule?
Answer: Its remaining activity at 10 µM is 96%.

Question: And the remaining activity at 10 µM (Plk4(h); [3])?
Answer: The remaining activity at 10 µM was 87%.

Question: And the remaining activity at 10 µM (EphB1(h); [3])?
Answer: Its remaining activity at 10 µM is 88%.

Question: `Fc1ccc(CNc2ncnc3ccc(F)cc23)cc1` [5aa, 6-Fluoro-N-(4-fluorobenzyl)-4-Quinazolinamine] was tested. Which remaining activity at 10 µM (NDR1(h); [4]) did it give?
Answer: Its remaining activity at 10 µM is 108%.

Question: And the remaining activity at 10 µM (Pim-3(h); [4])?
Answer: Its remaining activity at 10 µM is 123%.

Question: And the remaining activity at 10 µM (Plk4(h); [4])?
Answer: Its remaining activity at 10 µM is 91%.

Question: What about the remaining activity at 10 µM (EphB1(h); [4]) of the same molecule?
Answer: Its remaining activity at 10 µM is 84%.
